Experimental data: publication PMC4441825 (Chemical research in toxicology, 2013)

Biological target: regulator of G-protein signaling 4 (RGS4) (Rattus norvegicus, UniProt P49799)
Test: LC-ESI-MS of intact protein
Format: biochemical

Chain of regulator of G-protein signaling 4 (RGS4) (P49799 52-205): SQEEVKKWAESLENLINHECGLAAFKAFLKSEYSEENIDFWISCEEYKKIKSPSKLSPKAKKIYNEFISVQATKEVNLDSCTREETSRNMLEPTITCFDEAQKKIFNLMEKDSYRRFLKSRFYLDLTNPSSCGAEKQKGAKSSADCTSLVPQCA
Chain of regulator of G-protein signaling 4 (RGS4) (P63096 2-354 R178M/A326S partner): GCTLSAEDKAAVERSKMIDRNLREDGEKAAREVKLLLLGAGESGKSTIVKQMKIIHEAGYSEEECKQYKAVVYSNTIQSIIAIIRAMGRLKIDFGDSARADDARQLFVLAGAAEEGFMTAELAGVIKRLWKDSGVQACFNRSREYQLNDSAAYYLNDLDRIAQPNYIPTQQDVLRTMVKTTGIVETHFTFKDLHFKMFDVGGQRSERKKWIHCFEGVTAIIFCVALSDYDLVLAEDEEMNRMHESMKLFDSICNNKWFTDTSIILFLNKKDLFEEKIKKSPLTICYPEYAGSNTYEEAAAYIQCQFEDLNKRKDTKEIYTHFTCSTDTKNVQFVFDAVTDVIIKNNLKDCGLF

IC50: ~7.5 mM
Structure (SMILES): CCCCCC(O)C=CC=O (stereo not shown) [4HNE, 4-hydroxy-2-nonenal]
